{"source": "patent US12337024B2", "about": "“Larazotide formulations” (Interlude Biopharma Co., priority 2019, dated 2025)", "key": {"mice on the Western diet": {"system": "mice on the Western diet", "procedure": "77 DIAMOND™ mice were placed on either normal chow (NDNW) or Western Diet (WDSW) and aged up to 8, 20, 28, 36, and 40 weeks, then dosed with 4 kDa FITC-dextran at 600 mg/kg body weight by gavage. Four hours after the dosing, at least 20 μL of serum was taken by tail vein nick. A competition ELISA, which measures small dextran polymers (conjugated or unconjugated), was used to quantify serum dextran concentration.\nThe subsequent experiment evaluated the effects of orally administered larazotide acetate to mice on the Western diet. The study design is depicted in FIG. 2. Specifically, 8 groups of mice were placed on WDSW diets for 16 weeks and administered larazotide (dosed in drinking water or oral gavage), pioglitazone comparator, or vehicle from 8-16 weeks. Improvement in leaky gut was assessed by dosing the mice with unconjugated dextran at 600 mg/kg via oral gavage at baseline and end of study, serum was collected 4 hours later, and serum dextran concentrations were measured."}, "tight junction": {"system": "tight junction", "assay": "Activity as tight junction regulators"}, "celiac disease symptoms": {"system": "celiac disease symptoms", "settings": "clinical trials, cited from earlier work"}}, "note": "Like-named read-outs stand apart in the source and are kept apart here. Ends that are not written are not given here.", "data": [{"substance": "larazotide acetate", "values": [{"measurement": "serum dextran concentrations", "setting": "mice on the Western diet; mice on Western diets, various doses, serum 4 hours after dextran 600 mg/kg gavage", "value": "successful in lowering the serum dextran concentrations"}]}, {"substance": "GGVLVQPG [larazotide]", "values": [{"measurement": "activity as tight junction regulator when mixed with fragments", "setting": "tight junction; full length larazotide mixed with fragments GVLVQPG and VLVQPG", "value": "activity is completely abolished"}, {"measurement": "reduction of celiac disease symptoms", "setting": "celiac disease symptoms; higher doses (e.g., 1 mg and 2 mg doses)", "value": "attenuation of activity, or no activity at all"}, {"measurement": "reduction of celiac disease symptoms", "setting": "celiac disease symptoms; lower doses (e.g., 0.5 mg dose)", "value": "benefit at reducing celiac disease symptoms"}, {"measurement": "gut integrity", "setting": "mice on the Western diet; mice on Western diet, larazotide from 8-16 weeks, drinking water or oral gavage, FIG. 3", "value": "improved gut integrity"}]}, {"substance": "GVLVQPG (Synthetic polymer) [larazotide-derived fragment missing N-terminal glycine residue]", "values": [{"measurement": "activity as tight junction regulators", "setting": "tight junction", "value": "inactive"}]}, {"substance": "VLVQPG (Synthetic polymer) [larazotide-derived fragment missing N-terminal glycine residues]", "values": [{"measurement": "activity as tight junction regulators", "setting": "tight junction", "value": "inactive"}]}]}
